Test results as given in paper PMC10891534, “The Staphylococcus aureus ArlS Kinase Inhibitor Tilmicosin Has Potent Anti-Biofilm Activity in Both Static and Flow Conditions” (Microorganisms, 2024).

Target: ArlS histidine kinase (ArlSHK) (Staphylococcus aureus, UniProt Q9KJN3)
Assay: Kinase-Glo luminescent ATPase/kinase assay with purified ArlSHK, […] ATP, dose-response
Assay type: biochemical

ArlS histidine kinase (ArlSHK), sequence (Q9KJN3 239-451): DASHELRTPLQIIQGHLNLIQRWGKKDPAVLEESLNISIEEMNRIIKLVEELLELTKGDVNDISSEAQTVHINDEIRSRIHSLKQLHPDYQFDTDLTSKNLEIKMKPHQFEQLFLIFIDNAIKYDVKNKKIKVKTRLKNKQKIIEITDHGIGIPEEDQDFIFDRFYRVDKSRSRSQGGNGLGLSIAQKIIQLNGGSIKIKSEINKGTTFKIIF

Molecule `CC[C@H]1OC(=O)C[C@@H](O)[C@H](C)[C@@H](O[C@@H]2O[C@H](C)[C@@H](O)[C@H](N(C)C)[C@H]2O)[C@@H](CCN2C[C@H](C)C[C@H](C)C2)C[C@@H](C)C(=O)/C=C/C(C)=C/[C@@H]1CO[C@@H]1O[C@H](C)[C@@H](O)[C@@H](OC)[C@H]1OC` [tilmicosin] has an IC50 of 1090 nM.
